Experimental data as given in US9487479B2, “Small molecule inhibitors of N-terminus activation of the androgen receptor” (The University of British Columbia, priority 2008, dated 2016).

Tests used:
[1] = molecular target: T1, AR NTD-Gal4DBD chimera protein (Gal4DBD-AR1-558) (Homo sapiens, UniProt P10275); experiment: FSK-induced transactivation of the AR NTD (Gal4-luciferase reporter in LNCaP cells); format: cell-based; details: 5 μg/ml, 1 hr pretreatment, FSK 50 μM for 24 h
T1 construct: co-transfected with the expression vector for Gal4DBD-AR1-558; expressed in transfected cells; host or cells: LNCaP cells
T1 sequence (P10275 1-558): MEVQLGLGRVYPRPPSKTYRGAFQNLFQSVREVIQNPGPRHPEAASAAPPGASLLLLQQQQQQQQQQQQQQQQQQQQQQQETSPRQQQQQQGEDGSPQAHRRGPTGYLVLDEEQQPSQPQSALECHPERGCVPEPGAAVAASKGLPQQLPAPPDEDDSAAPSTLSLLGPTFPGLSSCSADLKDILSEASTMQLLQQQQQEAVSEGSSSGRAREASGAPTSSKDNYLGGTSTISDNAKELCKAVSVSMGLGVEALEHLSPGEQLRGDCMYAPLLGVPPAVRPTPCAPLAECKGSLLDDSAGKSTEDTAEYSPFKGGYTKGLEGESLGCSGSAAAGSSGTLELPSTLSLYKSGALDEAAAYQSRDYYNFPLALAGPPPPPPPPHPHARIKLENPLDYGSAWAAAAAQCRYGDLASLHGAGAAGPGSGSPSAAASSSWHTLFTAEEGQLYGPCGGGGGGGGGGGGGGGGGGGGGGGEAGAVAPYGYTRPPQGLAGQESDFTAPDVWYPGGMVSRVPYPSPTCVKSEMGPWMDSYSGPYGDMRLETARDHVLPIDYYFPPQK
Description: Sintokamide A (CB3.1) (5 μg/ml) was tested for its ability to inhibit the AR NTD. LNCaP cells were co-transfected with the expression vector for Gal4DBD-AR1-558 and the complimentary 5XGal4UAS-luciferase reporter. Induction of this reporter by FSK is a measure of transactivation of the Gal4DBD-AR1-558 fusion protein (Sadar 1999 J. Biol. Chem. 274, 7777-7783).
To determine if CB3.1 blocked transactivation of the AR NTD, LNCaP cells were transfected with the plasmids for the AR NTD-Gal4DBD chimera protein and the Gal4-luciferase reporter and pretreated for 1 hr with CB3.1 (5 μg/ml) prior to addition of forskolin (FSK 50 μM) for an additional 24 h (see: Sadar et al. (1999) J. Biol. Chem. 274:7777-83).

[2] = tested on: PC3 cells; experiment: Proliferation of PC3 cells (BrdU incorporation); format: cell-based, human; details: 5 μg/mL
From the text: LNCaP cells were employed initially for all experiments because they are well-differentiated human prostate cancer cells in which ligand-independent activation of the AR by FSK has been characterized (Nazareth et al 1996 J. Biol. Chem. 271, 19900-19907; and Sadar 1999 J. Biol. Chem. 274, 7777-7783). LNCaP cells express endogenous AR and secrete prostate-specific antigen (PSA) (Horoszewicz et al 1983 Cancer Res. 43, 1809-1818). LNCaP cells can be grown either as monolayers in cell culture or as tumors in the well-characterized xenograft model that progresses to androgen independence in castrated hosts (Sato et al 1996 J. Steroid Biochem. Mol. Biol. 58, 139-146; Gleave et al 1991 Cancer Res. 51, 3753-3761; Sato et al 1997 Cancer Res. 57, 1584-1589; and Sadar et al 2002 Mol. Cancer Ther. 1(8), 629-637). […] Small molecules that specifically target the AR-NTD should have no effect on PC3 cells. This means that they should not alter the proliferation of PC3 cells if they specifically block the AR to mediate their inhibitory effects. R1881 was employed since it is stable and avoids problems associated with the labile physiological ligand dihydrotestosterone (DHT). Reporter specificity may be determined using several alternative reporter gene constructs. […]
BrdU incorporation was measured 3 days later to indicate changes in proliferation in response to androgen (see FIG. 3B).

[3] = Animal body weight during the LNCaP xenograft experiment; format: in vivo, mice
Description: The subcutaneous xenograft model was used to test whether sintokamides that inhibit activation of the androgen receptor in vitro have any effect on these tumors. CB3.1 was tested in vivo using the LNCaP subcutaneous xenograft model. […] LNCaP human prostate cancer cells express endogenous androgen receptor (AR) and prostate-specific antigen (PSA), and progress to androgen independence in castrated hosts. LNCaP cells (10^6/ml) were implanted subcutaneously into NOD-SCID male mice that were at least 8 weeks in age. The cells were suspended in 75 μl of RPMI medium 1640 (5% FBS) with 75 μl of Matrigel and injected into the flank region of the host under anesthesia. LNCaP cells were implanted subcutaneously into NOD-SCID male mice and the animals were castrated when the tumors were approximately 100 mm^3 (mean=[…]; n=18) and randomized into two groups. One week after castration the animals were treated every 3 days with an intratumoral dose of 30 mg/kg body weight of CB3.1 or matching volume of vehicle (control, DMSO). […] Fifteen days after the first injection of CB3.1, the tumors were 111.81%±38.12 the tumor volume on the day of the 1st injection. While 15 days after injection of DMSO, the tumors were 180.27%±111.67 the tumor volume on the day of the 1st injection. Serum PSA provides an indication of prognosis. For animals receiving CB3.1, serum PSA was 98.47%±170.51 on day 15 after the 1st injection. […] Tumor volume and serum PSA values were consistent with CB3.1 reducing tumor burden and serum PSA compared to vehicle-treated animals.

For CCC(=O)N[C@H](C[C@H](C)C(Cl)(Cl)Cl)C(=O)N1C(=O)C=C(OC)[C@@H]1C[C@H](C)C(Cl)Cl [CB3.1, Sintokamide A], the “FSK-induced transactivation of the AR NTD” value [1] was “reduced FSK-induced transactivation of the AR NTD to baseline levels”, the “proliferation of PC3 cells (BrdU incorporation)” value [2] was “did not block proliferation” and the “change in animal body weight” value ([3]; duration of the experiment, intratumoral 30 mg/kg every 3 days) was “No change in animal body weight”. For the same compound, the “animal body weight, finish” value ([3]; finish of experiment, intratumoral 30 mg/kg every 3 days) was 25.0±1.4 grams and the “animal body weight, start” value ([3]; start of experiment) was 24.6±1.1 grams.
